“Also recorded” adds a separate entry of the source. Non-standard residues stand in square brackets, D forms with d. No end group written: not given here. 2Nal = N[C@@H](Cc1ccc2ccccc2c1)C(=O)O; Sar = CNCC(=O)O
How the values were obtained:
carboplatin treated mice [1] = assay: Example 2: dosing before and/or after carboplatin, hematological parameters in mice; assay type: in vivo, BALB/c mouse
Experimental: (§1) The effects of PEGylated TPO Compound No. 1 on mice treated with carboplatin were observed. For all examples herein, a 10 mg/ml stock solution of PEGylated TPO Compound No. 1 was prepared in sterile saline. For mixing, the preparation was placed on a gyratory shaker for 15 mm. at 200 rpm. This method was used to dissolve PEGylated TPO Compound No. 1 without foaming. The stock was filtered using a GV Millex (0.22 μm) filter. Dosing solutions were then prepared from this stock using sterile saline. The stock and dosing solutions were prepared fresh on the day of use.
The possibility that PEGylated TPO Compound No. 1 may sensitize bone marrow hematopoietic stem cells of mice to the toxic effects of carboplatin treatment was examined. For this study, a dose of PEGylated TPO Compound No. 1 was administered to the mice seven days prior to the carboplatin dose or immediately after carboplatin treatment. An additional group was treated with PEGylated TPO Compound No. 1 both prior to and after carboplatin administration. The effect of these dosing regimens on hematological parameters was also observed.
(§2) The groups of mice were treated with either carboplatin or vehicle (Phosphate Buffered Saline, PBS) by ip administration on Days 7 and 8 as delineated below. The optimal dose of carboplatin used to induce thrombocytopenia in the BALB/c mouse strain was previously determined to be a fractionated total dose of 120 mg/kg given as two consecutive daily injections (i.e., 2×60 mg/kg). Seven days prior to the first carboplatin dose or one (1) hour after the second dose of carboplatin, groups of mice were treated with PEGylated TPO Compound No. 1 (300 μg/kg) or vehicle (sterile saline, SS, preservative-free 0.9% sodium chloride) by IV (bolus) injection as delineated in Table 2. An additional group was treated with PEGylated TPO Compound No. 1 both before (Day 0) and after (Day 8, t=1 h) the carboplatin dose. All dosing was performed on a per-weight basis (100 μl/10 g body weight).
(§3) On Days 14, 18, 22 and 26, five mice in each test group were weighed and then euthanised using CO2-asphyxiation and exsanguination via cardiac puncture. The blood samples were transferred to separate EDTA (lavender-top) microcontainers for hematological evaluation. Groups of control mice (5) were processed on Days 14 and 26. The data are presented graphically as group means +SEM.

carboplatin treated mice [2] = assay: Example 3: dosing at various times after carboplatin, anemia in mice; assay type: in vivo, BALB/c mouse
Experimental: as §1
The effect of PEGylated TPO Compound No. 1 on the duration and severity of anemia following dosing regimens in which PEGylated TPO Compound No. 1 is administered at various times following the carboplatin treatment was observed. For this study, an amount of PEGylated TPO Compound No. 1 was administered to mice, one (1) hour, one (1) day or four (4) days following a carboplatin dose.
as §2, with “−1” for “7”, “0” for “8”, “One hour (Day 0), one day (Day 1) or four” for “Seven”, “(Day 4) following” for “prior to the first carboplatin dose or one (1) hour after”, “3. The dose” for “2. An additional group”, “administered” for “treated with PEGylated TPO Compound No. 1 both before (Day 0) and after (Day 8, t=1 h) the carboplatin dose. All dosing was performed”
as §3, with “6, 8, 10 & 12,” for “14, 18, 22 and 26,”, “exsanguinations” for “exsanguination”, “6 & 12.” for “14 and 26.”

carboplatin-treated mice = assay: Example 4: lower doses, survival of erythrocyte lineages in carboplatin-treated mice; assay type: in vivo, BALB/c mouse
Experimental: as §1
The ability of PEGylated TPO Compound No. 1 to function as a survival factor for megakaryocyte and erythrocyte lineages in carboplatin-treated mice as determined by changes in hematological parameters was observed. […] In this study, the effect of lower doses of PEGylated TPO Compound No. 1 (i.e., 30, 100 and 300 μg/kg) on the survival of erythrocyte lineages was examined to characterize the dose-response for this effect.
The groups of mice were treated with either carboplatin or vehicle (Phosphate Buffered Saline, PBS) by ip administration on Days −1 and 0 as delineated below. The optimal dose of carboplatin used to induce thrombocytopenia in the BALB/c mouse strain was previously determined to be a fractionated total dose of 120 mg/kg given as two consecutive daily injections (i.e., 2×60 mg/kg). Approximately one hour following the second dose of carboplatin, groups of mice were treated with PEGylated TPO Compound No. 1 or vehicle (sterile saline, SS, preservative-free 0.9% sodium chloride) by IV (bolus) injection as delineated in Table 4. The dose was administered on a per-weight basis (100 μl/10 g body weight).
On Days 6, 8 and 12, five mice in each test group were weighed and then euthanised using CO2-asphyxiation and exsanguinations via cardiac puncture. The blood samples were transferred to separate EDTA (lavender-top) microcontainers for hematologic evaluation. Groups of control mice (5) were processed on Days 6 & 12.

carboplatin treated mice [3] = assay: Example 6: mechanistic study, increasing carboplatin, hematology and brain fibrinogen/fibrin histology; assay type: in vivo, mouse
Experimental: as §1
For mechanistic studies, groups of mice were treated with vehicle or increasing amounts of carboplatin (i.e., 60, 70 or 80 mg/kg) for 2 consecutive days (Day −1 & Day 0). Approximately one hour following the second dose of carboplatin, groups of mice were treated with PEGylated TPO Compound No. 1 (100 μg/kg) or vehicle (sterile saline, SS, preservative-free 0.9% sodium chloride) by IV (bolus) injection as delineated in Table 5.
On Day 15, the mice in all treatment groups were euthanised using CO2-asphyxiation and exsanguinations via cardiac puncture. The blood samples were transferred to separate EDTA (lavender-top) microtainers for hematologic evaluation. In addition, several organs (including the brains) of control mice and mice treated with 2×70 mg/kg carboplatin without and with co-treatment with PEGylated TPO Compound No. 1 were isolated and processed for histological examination. Sections of these tissues were processed immunohistochemically for fibrinogen/fibrin.

N.N.O=C([O-])C1(C(=O)[O-])CCC1.[Pt+2] [carboplatin, reference compound]
decreases in hemoglobin levels, RBC counts and hematocrits (carboplatin treated mice [1]; carboplatin alone 2×60 mg/kg ip, Days 18 and 22 compared to control groups): approx. 18%
body weight loss (average) (carboplatin treated mice [1]; carboplatin alone, between Days 7 and 26): approximately 4%
decreases in hemoglobin levels, RBC counts and hematocrits (carboplatin treated mice [2]; carboplatin alone 2×60 mg/kg ip, surviving mice (2 mice) by Day 12 compared to control groups): approx. 47%
decrease in hemoglobin levels (carboplatin-treated mice; carboplatin alone 2×60 mg/kg ip, by Day 12): greater than 25%
mortality (carboplatin treated mice [3]; 2×80 mg/kg carboplatin (alone), all of the mice, prior to study termination): either found dead or were euthanized (moribund)

Methoxypolyethyleneglycol20000-propionyl-L-Isoleucyl-L-Glutamyl-Glycyl-L-Prolyl-L-Threonyl-L-Leucyl-L-Arginyl-L-Glutaminyl-L-2-Naphthylalanyl-L-Leucyl-L-Alanyl-L-Alanyl-L-Arginyl-Sarcosyl-Ne-(methoxypolyethyleneglycol20000-propionyl-L-Isoleucyl-L-Glutamyl-Glycyl-L-Prolyl-L-Threonyl-L-Leucyl-L-Arginyl-L-Glutaminyl-L-2-Naphthylalanyl-L-Leucyl-L-Alanyl-L-Alanyl-L-Arginyl-Sarcosyl-)-Lysinamide ({methoxypolyethyleneglycol20000‑propionyl}-IEGPTLRQ[2Nal]LAAR[Sar]K[Sar]RAAL[2Nal]QRLTPGEI; also: dimer: positions 16-29 are the second 14-mer written in reverse, its Sar C-terminus joined to the K15 epsilon-amine, K15 is C-terminal lysinamide (NH2), methoxypolyethyleneglycol20000-propionyl also on Ile29 N-terminus) [PEGylated TPO Compound No. 1]
carboplatin-induced changes in erythrocyte parameters (carboplatin treated mice [1]; 300 μg/kg iv on Day 0 (only), seven days prior to carboplatin): failed to affect carboplatin-induced changes
carboplatin-induced decreases in hemoglobin levels, RBC counts and hematocrits (carboplatin treated mice [1]; 300 μg/kg iv on Day 8 (1 hour after second carboplatin) without or with additional dose on Day 0): prevented
body weight between Days 7 and 26 (carboplatin treated mice [1]; carboplatin plus various co-treatments, 300 μg/kg iv, no statistical analysis): prevented this weight loss
onset of signs (hunched, unkempt) (carboplatin treated mice [1]; treatment on Day 8 without or with additional treatment on Day 0): appeared to delay the onset of these signs
severity and duration of signs (hunched, unkempt) (carboplatin treated mice [1]; treatment on Days 0 and 8): decreased the severity and duration
carboplatin-induced decreases in hemoglobin levels, RBC counts and hematocrits (carboplatin treated mice [2]; 300 μg/kg iv on Day 0 (1 hour after carboplatin) and on Day 1): prevented
weight loss associated with carboplatin treatment (carboplatin treated mice [2]; 300 μg/kg iv on Day 0, Day 1 or Day 4, no statistical analysis): did not appear to affect the weight loss
carboplatin-induced changes in erythrocyte parameters (carboplatin treated mice [2]; 300 μg/kg iv on Day 4): failed to affect carboplatin-induced changes
onset, frequency or severity of signs (hunched, flaccid) (carboplatin treated mice [2]; 300 μg/kg iv, no detailed analysis): did not appear to have a dramatic effect
carboplatin-induced anemia (carboplatin treated mice [2]; dosed within 24 hours of chemotherapy): Prevention of carboplatin-induced anemia is observed
carboplatin-induced decreases in RBC counts and hematocrit (carboplatin-treated mice; 30, 100, 300 μg/kg iv): effectively inhibited
weight loss or recovery (carboplatin-treated mice; 30, 100, 300 μg/kg iv, 13-Day study period): did not appear to affect weight loss or recovery
carboplatin-induced decrease in hemoglobin levels (carboplatin-treated mice; all doses (30, 100, 300 μg/kg iv, about one hour after second carboplatin dose), Day 12): totally inhibited
anemia induced by carboplatin (carboplatin-treated mice; all doses, Day 12): completely prevent the anemia
altered appearance and behavior (hunched, unkempt, soft stool) (carboplatin-treated mice; appeared to be dose-dependent): decreased the onset, frequency and severity of these signs
carboplatin-induced decreases in platelet and RBC counts (carboplatin treated mice [3]; 100 μg/kg iv about one hour after second carboplatin dose, Day 15): totally inhibited
microthrombotic events in brain sections, entire dose group (carboplatin treated mice [3]; 2×70 mg/kg carboplatin plus 100 μg/kg iv): single
fibrinogen/fibrin staining of small vessels in brain sections (carboplatin treated mice [3]; 2×70 mg/kg carboplatin plus 100 μg/kg iv, Day 15, 70 mg/kg): appeared normal or exhibited fibrinogen/fibrin staining that was only slightly darker than the control group; also recorded: reduces fibrinogen deposition and blood clots
thrombocytopenia or anemia (carboplatin treated mice [3]; 2×80 mg/kg carboplatin plus 100 μg/kg iv, Day 15): did not exhibit thrombocytopenia or anemia
survival (carboplatin treated mice [3]; 2×80 mg/kg carboplatin plus 100 μg/kg iv, all of the mice): survived until the scheduled study termination
